Experimental data from patent publication US11197891B2, “Therapies with lanthionine C-like protein 2 ligands and cells prepared therewith” (Landos Biopharma, Inc., priority 2017, dated 2021).
“Also recorded” adds a separate entry of the source.

Columns and labels:
[1] = test system: C. difficile strain VPI 10463 (ATCC 43255); experiment: C. difficile infection animal model; type: in vivo, mice; conditions: 8 mg/kg/d after infection
[2] = test system: CD4+ T cells; experiment: Differentiation of CD4+ T cells into Tregs with metabolic modulators; type: cell-based, mice; conditions: BT-11 with PS-48 (5 μM), DASA-58 (10 μM) or thapsigargin (10 nM)
Description: (§1) Spleens from WT and Lancl2−/− mice were excised and crushed to generate a single cell suspension. CD4+ T cell fraction was enriched by negative selection via magnetic sorting with the BD IMag system. Naïve CD4+ T cells were obtained by incubation with a biotinylated CD62L antibody followed by conjugation to streptavidin coated magnetic beads. Naïve cells were incubated for 48 hours within anti-CD3 coated tissue culture plates in complete IMDM media containing all-trans retinoic acid and purified TGF-β to stimulate differentiation into Tregs. […] Metabolic modulators, PS-48 (5 μM), DASA-58 (10 μM), and thapsigargin (10 nM), were added at 0 h. […] Six hours prior to assay, cells were stimulated with PMA and ionomycin. Cells were collected from plate for downstream analysis by flow cytometry, gene expression and metabolic assay.

[3] = test system: Mdr1a−/− mice; experiment: Mdr1a−/− model of colitis (IBD); type: in vivo
Text: Mdr1a−/− model. Mdr1a−/− mice develop spontaneous colitis. […] Mice were weighed and scored weekly to monitor the development of colitis. At 10 weeks of age, Mdr1a−/− were sacrificed for the collection of tissue for downstream assay. DSS model. Lancl2^ΔT and Lancl2-expressing controls were given dextran sulfate sodium in drinking water for seven days. Following seven days, standard drinking water was returned. Mice were weighed and scored daily. Mice were euthanized for tissue collection at 7 and 10 days of experimental timeline. Adoptive transfer model. WT and Lancl2−/− donor spleens were crushed and enriched for CD4+ fraction by magnetic sorting. CD4+CD45RB^hiCD25− (Teff) and CD4+CD45RB^loCD25+ (Treg) cells were sorted by a FACSAria cell sorter. Based on indicated experimental group, Rag2−/− recipient mice received 4×10^5 Teff and 1×10^5 Treg cells from WT or Lancl2−/− origin by intraperitoneal injection. […] Mice were weighed and scored weekly until euthanasia at 8 weeks post-transfer.
Colons and mesenteric lymph nodes (MLN) were collected into RPMI/FBS buffer containing collagenase (300U/mL) and DNase (50U/mL) for digestion. Following filtration of the resulting single cell suspensions, immune cells were purified by Percoll gradient. Cells were labeled with mixtures of extracellular (CD45, CD3, CD4, CD8, CD19, NK1.1, CD25, F4/80, CD11b, CX3CR1, CD64) and intracellular (Tbet, RORγT, FOXP3, IFNγ, IL17, IL10) antibodies in a sequential live staining in 96-well plates. Data was acquired using a FACS Celesta flow cytometer with FACSDiva software.
Total RNA from colon and cells was generated using the Qiagen RNeasy mini kit. cDNA was generated using the BioRad iScript cDNA synthesis kit. Standard curves were generated by serial dilution of purified product from a standard PCR reaction with Taq DNA polymerase followed by purification using the Qiagen MinElute PCR purification kit. Expression levels were obtained from quantitative real-time PCR with SybrGreen supermix on a BioRad CFX96 Thermal cycler followed by normalization to expression of β-actin as described previously.
H&E stained colonic sections were prepared from portions of colons collected into 10% buffered formalin and embedded in paraffin. Slides were examined by a board-certified veterinary pathologist via an Olympus microscope and images were collected with Image-Pro software. Samples were scored (0-4) for leukocytic infiltration, epithelial erosion and mucosal thickening.

[4] = test system: PBMCs from Crohn's disease donors; experiment: PBMCs isolated from Crohn's disease donors, 24 hour culture; type: cell-based, human
Description: (§2) Fresh de-identified whole blood was obtained from commercial vendor. Blood was diluted and purified for PBMC fraction by LeukoSep tube. Remaining red blood cells were lysed by hypotonic lysis. […] For siRNA experiments, cells were first incubated with an OriGene 3-mer LANCL2 siRNA or scrambled control suspended within ViromerGreen transfection reagent for 6 hours. […] Cells were stimulated with PMA and ionomycin six hours prior to assay.
(§3) Whole blood was obtained from Crohn's disease patients, clinically categorized as mild to moderate disease.

[5] = target: T1, LANCL2 (Homo sapiens, UniProt Q9NS86); experiment: Surface plasmon resonance (SPR) binding to LANCL2; conditions: Tables 1A and 1B; read-out: SPR Affinity to LANCL2 (Kd)
T1 sequence (Q9NS86 1-450): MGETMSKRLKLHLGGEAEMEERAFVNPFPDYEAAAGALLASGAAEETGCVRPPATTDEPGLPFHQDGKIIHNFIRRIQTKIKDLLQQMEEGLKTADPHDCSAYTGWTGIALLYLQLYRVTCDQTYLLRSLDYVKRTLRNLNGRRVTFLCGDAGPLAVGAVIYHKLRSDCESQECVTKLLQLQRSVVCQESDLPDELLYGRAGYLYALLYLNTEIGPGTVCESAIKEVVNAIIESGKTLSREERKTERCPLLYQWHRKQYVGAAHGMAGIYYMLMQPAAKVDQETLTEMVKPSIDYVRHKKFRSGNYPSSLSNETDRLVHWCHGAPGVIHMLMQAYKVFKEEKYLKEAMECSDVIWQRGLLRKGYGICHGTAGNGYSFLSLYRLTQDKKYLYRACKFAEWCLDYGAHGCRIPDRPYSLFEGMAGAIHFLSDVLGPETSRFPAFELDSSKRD

[6] = test system: Lancl2ΔT and Lancl2-expressing control mice challenged with DSS; experiment: DSS model of colitis; type: in vivo
[7] = test system: in vitro differentiated Tregs; experiment: Gene expression of Treg stability genes in in vitro differentiated Tregs; type: cell-based, mice; conditions: WT Tregs
Description: Total RNA from colon and cells was generated using the Qiagen RNeasy mini kit. cDNA was generated using the BioRad iScript cDNA synthesis kit. Standard curves were generated by serial dilution of purified product from a standard PCR reaction with Taq DNA polymerase followed by purification using the Qiagen MinElute PCR purification kit. Expression levels were obtained from quantitative real-time PCR with SybrGreen supermix on a BioRad CFX96 Thermal cycler followed by normalization to expression of β-actin as described previously [33].
Spleens from WT and Lancl2−/− mice were excised and crushed to generate a single cell suspension. CD4+ T cell fraction was enriched by negative selection via magnetic sorting with the BD IMag system. Naïve CD4+ T cells were obtained by incubation with a biotinylated CD62L antibody followed by conjugation to streptavidin coated magnetic beads. Naïve cells were incubated for 48 hours within anti-CD3 coated tissue culture plates in complete IMDM media containing all-trans retinoic acid and purified TGF-β to stimulate differentiation into Tregs [18]. […] Metabolic modulators, PS-48 (5 μM), DASA-58 (10 μM), and thapsigargin (10 nM), were added at 0 h. […] Six hours prior to assay, cells were stimulated with PMA and ionomycin. Cells were collected from plate for downstream analysis by flow cytometry, gene expression and metabolic assay. […]

[8] = test system: CD4+ T cells co-cultured with in vitro differentiated Tregs; experiment: Co-assay of CD4+ T cells and BT-11 pre-treated Treg cells; type: cell-based, mice
Description: as §1
After two days cells were collected and plated with freshly collected CFSE-labeled CD4+ T cells.

[9] = test system: naïve CD4+ T cells isolated from human PBMCs; experiment: Human naïve CD4+ T cells differentiated into Tregs; type: cell-based; conditions: differentiated into Tregs in presence of BT-11, dose dependent
Description: as §2, §3

[10] = test system: in vitro differentiated Tregs; experiment: STAT5a and FOXO1 phosphorylation by Western blot in in vitro differentiated Tregs; type: cell-based, mice
Description: Cells were also differentiated in the presence of inhibitors for PTEN (SF1670) or STATS (STAT5i).

[11] = test system: Naïve CD4+ T cells; experiment: Differentiation of naïve CD4+ T cells into Tregs with IL-2 or IL-12 (flow cytometry); type: cell-based, mice; conditions: media containing IL-2 or IL-12, inhibitor SF1670 or STAT5i
Description: Naïve CD4+ T cells were isolated from the spleens of mice by magnetic sorting. The isolated cells were incubated in anti-CD3/anti-CD28 coated 96 well plates in Treg differentiation media. The Treg differentiation media was Iscove's Modified Dulbecco's Medium (IMDM) media (ThermoFisher Scientific) supplemented with fetal bovine serum, HEPES, penicillin/streptomycin, L-glutamine, and differentiation agents. The Treg differentiation agents were 10 nM all-trans-retinoic acid and 5 ng/mL TGF-β. Additional experiments were conducted comparing differentiation in the Treg differentiation media with and without the addition of 10 ng/mL IL-2 or IL-12. […] Prior to assay, cells were stimulated with PMA and ionomycin for 6 hours.
Colonic lamina propria lymphocytes and cultured cells were plated in 96 well plates (6×10^5 cells/well) and processed for immunophenotyping by flow cytometry as previously described. Briefly, cells were incubated with fluorochrome conjugated antibodies to extracellular markers: CD45, CD4, CD3, CD25, CD8. Samples needing a secondary staining were incubated with secondary antibodies, or streptavidin-conjugated fluorochrome. The samples were then fixed and permeabilized. Cells were incubated with antibodies to intracellular markers: Tbet, IFNγ, IL10, FOXP3, IL17, RORγT. Data was acquired with a BD FACS Celesta flow cytometer and analyzed using FACS Diva software (BD Pharmingen). […]

[12] = WT Treg pre-treated with BT-11, 24 h co-assay

Structure (SMILES): O=C(c1cccc(-c2nc3ccccc3[nH]2)n1)N1CCN(C(=O)c2cccc(-c3nc4ccccc4[nH]3)n2)CC1 [BT-11, N,N-Bis(benzimidazolylpicolinoyl)piperazine]
- burden of C. difficile within the colon [1]: did not induce a decrease in the burden of C. difficile
- colonic pathology including infiltration of leukocytes [1]: reduced colonic pathology
- mortality [1]: complete protection against mortality
- neutrophils, Th1 and Th17 cells within the lamina propria [1]: reduced neutrophils, Th1 and Th17 cells
- regulatory T cells within the lamina propria [1]: increase in regulatory T cells
- disease activity scores ([1]; from day 2 onward): lower disease activity scores
- Treg cell differentiation [2]: increased differentiation of Tregs
- colonic leukocytic infiltration, epithelial erosion and mucosal thickening ([3]; 8 mg/kg oral daily, at 10 weeks of age): reduced colonic leukocytic infiltration, epithelial erosion and mucosal thickening
- disease activity (development of disease) ([3]; 8 mg/kg oral daily, six weeks from four weeks of age): prevented the development of disease throughout the six-week period; also recorded: decreases disease activity index
- efficacy when given therapeutically ([3]; beginning after presentation of symptoms at 7 weeks of age): displays efficacy when given therapeutically
- percentages of IL-10-producing cellular subsets (CX3CR1+ macrophages, Treg cells) ([3]; colonic LP and MLN, 8 mg/kg oral daily): increased percentages of IL-10-producing cellular subsets
- inflammatory cytokines IFNγ, IL17A, IL6, TNFα, MCP1 ([3]; colonic gene expression and cytometric bead array): Down-regulation of inflammatory cytokines
- Th1 and Th17 cells in colonic lamina propria and mesenteric lymph nodes ([3]; flow cytometry, 8 mg/kg oral daily): significant (P<0.05) reductions
- whole colon Lancl2 expression ([3]; oral treatment): upregulated whole colon Lancl2
- percentage of IL-10+ and FOXP3+ cells ([4]; 24 hour culture with BT-11): higher percentage of IL-10+ and FOXP3+ cells
- percentages of TNFα+ and IFNγ+ cells ([4]; 24 hour culture with BT-11): lower percentages of TNFα+and IFNγ+ cells
- commitment to effector phenotypes (IFNγ+ cells) ([4]; augmented (external) PEP concentration): prevented cells from an increased commitment to effector phenotypes
- Kd [5]: 7.7 µM
- Th1 and Th17 cells in colonic LP ([6]; Lancl2ΔT mice treated with BT-11): failed to induce characteristic reductions in Th1 and Th17 cells
- efficacy in DSS model with loss of LANCL2 in CD4+ T cells ([6]; Lancl2ΔT mice, seven-day DSS, oral BT-11): abrogated the efficacy of BT-11
- expression of P2rx7 ([7]; 0.625 μM BT-11): significantly upregulated (P<0.05)
- expression of Socs2, Capn3, Irf7 and Lag3 ([7]; 48 hours of BT-11 treatment, significant at 0.625 μM): dose-dependent increase
- proliferative index and TNFα/IFNγ expression ([8]; KO (Lancl2−/−) Treg pre-treated with BT-11): did not induce changes in either measure
- expression of TNFα and IFNγ by cytometric bead array [8, 12]: lowered
- proliferative index of CD4+ T cells (CFSE) [8, 12]: lowered the proliferative index
- retention of Treg (FOXP3+IL10+) phenotype ([8]; WT Treg pre-treated with BT-11, after 24 h co-assay): greater retention of Treg (FOXP3+IL10+) phenotype
- stability-associated Treg markers (Lag3, Socs2, Irf7, P2rx7, Capn3, Ikzf2) [9]: upregulation of stability-associated Treg markers
- STAT5a phosphorylation ([10]; base Treg differentiation media and with IL-2 or IL-12): phosphorylated in a greater ratio
- FOXO1 phosphorylation ([10]; base media and media containing IL-2, but not IL-12): similarly affected

Structure (SMILES): CC(C)(C)C(=O)Nc1ccc2c(c1)C(=O)C(=O)c1ccccc1-2 [SF1670, reference compound]
- effects of BT-11 on CD25+ FOXP3+ and CD25+ Tbet+ cells with inhibitors [11]: only prevented effects of BT-11 on CD25+ Tbet+ cells in IL-2 containing media
